# Measurements reported in PubChem BioAssay (NCI).
#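 1) Cells in 96-well plates. 2) Compound, 48 h, 5 concentrations. 3) Linear interpolation between surrounding doses. 4) Unreached endpoint = highest concentration. GI50 is the concentration that inhibits growth by half. The concentration for full growth arrest is given as TGI.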
# Legend:
# Experiment in all cases: NCI-60 cell line screen, 48 h
# [1] = system: A498 renal
# [2] = system: MOLT-4 leukemia
# [3] = system: SNB-75 CNS
# [4] = system: RPMI-8226 leukemia
# [5] = system: ACHN renal
# [6] = system: HL-60(TB) leukemia
# [7] = system: HT29 colon
# [8] = system: NCI-H460 lung
# [9] = system: UO-31 renal
# [10] = system: BT-549 breast
# [11] = system: RXF 393 renal
# [12] = system: UACC-62 melanoma
# [13] = system: HOP-62 NSCLC
# [14] = system: SN12C renal
# [15] = system: CAKI-1 renal
# [16] = system: MDA-MB-435
# [17] = system: OVCAR-5 ovarian
# [18] = system: K-562 leukemia
# [19] = system: 786-0 renal
# [20] = system: MDA-MB-231 breast
# [21] = system: SNB-19 CNS
# [22] = system: SK-OV-3 ovarian
# [23] = system: EKVX NSCLC
# [24] = system: PC-3 prostate
# [25] = system: UACC-257 melanoma
# [26] = system: HS 578T breast
# [27] = system: CCRF-CEM leukemia
# [28] = system: NCI-H522 lung
# [29] = system: SF-295 CNS
# [30] = system: NCI-H23 lung
# [31] = system: TK-10 renal
# [32] = system: SF-268 CNS
# [33] = system: DU-145 prostate
# [34] = system: OVCAR-8 ovarian
# [35] = system: A549 NSCLC
# [36] = system: NCI-H226 lung
# [37] = system: KM12 colon
# [38] = system: U251 CNS
# [39] = system: MCF7 breast
# [40] = system: M14 melanoma
# [41] = system: SK-MEL-5 melanoma
# [42] = system: LOX IMVI melanoma
# [43] = system: SK-MEL-2 melanoma
# [44] = system: IGROV1 ovarian
# [45] = system: SF-539 CNS
# [46] = system: OVCAR-3 ovarian
# [47] = system: OVCAR-4 ovarian
# [48] = system: HOP-92 NSCLC
# [49] = system: COLO 205 colon
# [50] = system: MALME-3M melanoma
# [51] = system: HCT-116 colon
# [52] = system: SK-MEL-28 melanoma
# [53] = system: SW-620 colon
# [54] = system: NCI/ADR-RES ovarian
# [55] = system: SR leukemia
# [56] = system: T-47D breast
# [57] = system: HCC-2998 colon
# [58] = system: HCT-15 colon
structure (smiles),measurement,setting,value
COc1ccc(NC2Oc3cc4c(cc3C(c3cc(OC)c(OC)c(OC)c3)C2C)OCO4)cc1 (configuration not stated),TGI,[1],0.92 µM
same,TGI,[2],> 100 µM
same,TGI,[3],> 100 µM
same,TGI,[4],> 83 µM
same,TGI,[5],> 38.5 µM
same,TGI,[6],2 µM
same,TGI,[7],> 100 µM
same,TGI,[8],> 48.5 µM
same,TGI,[9],22.1 µM
same,TGI,[10],> 87.9 µM
same,TGI,[11],> 100 µM
same,TGI,[12],> 100 µM
same,TGI,[13],6.98 µM
same,TGI,[14],> 81.5 µM
same,TGI,[15],> 91.5 µM
same,TGI,[16],0.565 µM
same,TGI,[17],> 100 µM
same,TGI,[18],> 100 µM
same,TGI,[19],> 81.1 µM
same,TGI,[20],> 57.4 µM
same,TGI,[21],> 100 µM
same,TGI,[22],> 100 µM
same,TGI,[23],34.1 µM
same,TGI,[24],> 100 µM
same,TGI,[25],> 78.5 µM
same,TGI,[26],> 100 µM
same,TGI,[27],> 100 µM
same,TGI,[28],2.45 µM
same,TGI,[29],0.971 µM
same,TGI,[30],> 89.7 µM
same,TGI,[31],> 82.8 µM
same,TGI,[32],> 100 µM
same,TGI,[33],> 91.4 µM
same,TGI,[34],> 45.4 µM
same,TGI,[35],> 61.9 µM
same,TGI,[36],5.58 µM
same,TGI,[37],> 31.6 µM
same,TGI,[38],11.6 µM
same,TGI,[39],> 41.3 µM
same,TGI,[40],> 45.1 µM
same,TGI,[41],4.09 µM
same,TGI,[42],> 100 µM
same,TGI,[43],> 100 µM
same,TGI,[44],> 100 µM
same,TGI,[45],0.492 µM
same,TGI,[46],> 100 µM
same,TGI,[47],> 100 µM
same,TGI,[48],33.7 µM
same,TGI,[49],2.96 µM
same,TGI,[50],> 100 µM
same,TGI,[51],19.1 µM
same,TGI,[52],> 100 µM
same,TGI,[53],> 100 µM
N#Cc1c(O)c2c(c(O)c1C#N)C(=O)c1ccccc1C2=O,GI50,[1],1.39 µM
same,TGI,[1],16.4 µM
same,GI50,[54],2.12 µM
same,TGI,[54],7.25 µM
same,GI50,[2],2.07 µM
same,TGI,[2],5.07 µM
same,GI50,[3],1.37 µM
same,TGI,[3],3.94 µM
same,GI50,[4],1.42 µM
same,TGI,[4],4.67 µM
same,GI50,[5],2.72 µM
same,TGI,[5],9.96 µM
same,GI50,[6],1.44 µM
same,TGI,[6],3.64 µM
same,GI50,[7],0.563 µM
same,TGI,[7],3.96 µM
same,GI50,[8],1.04 µM
same,TGI,[8],> 33.8 µM
same,GI50,[9],2.3 µM
same,TGI,[9],9.81 µM
same,GI50,[10],3.77 µM
same,TGI,[10],14.9 µM
same,GI50,[11],1.86 µM
same,TGI,[11],6.27 µM
same,GI50,[12],1.05 µM
same,TGI,[12],2.85 µM
same,GI50,[13],3.44 µM
same,TGI,[13],10.5 µM
same,GI50,[14],1.82 µM
same,TGI,[14],4.04 µM
same,GI50,[15],2.65 µM
same,TGI,[15],8.3 µM
same,GI50,[55],1.82 µM
same,TGI,[55],5.35 µM
same,GI50,[17],3.35 µM
same,TGI,[17],8.74 µM
same,GI50,[18],1.9 µM
same,TGI,[18],6.63 µM
same,GI50,[19],2.45 µM
same,TGI,[19],5.45 µM
same,GI50,[20],2.01 µM
same,TGI,[20],9.55 µM
same,GI50,[21],2.86 µM
same,TGI,[21],22.2 µM
same,GI50,[22],3.99 µM
same,TGI,[22],> 34.9 µM
same,GI50,[23],3.07 µM
same,TGI,[23],26.1 µM
same,GI50,[24],1.57 µM
same,TGI,[24],7.01 µM
same,GI50,[25],1.57 µM
same,TGI,[25],4.82 µM
same,GI50,[26],1.26 µM
same,TGI,[26],5.87 µM
same,GI50,[27],2.23 µM
same,TGI,[27],5.82 µM
same,GI50,[56],2.71 µM
same,TGI,[56],9.2 µM
same,GI50,[28],2 µM
same,TGI,[28],5.92 µM
same,GI50,[29],1.88 µM
same,TGI,[29],14.2 µM
same,GI50,[30],0.621 µM
same,TGI,[30],2.7 µM
same,GI50,[31],4.2 µM
same,TGI,[31],13.8 µM
same,GI50,[32],2.8 µM
same,TGI,[32],16 µM
same,GI50,[33],1.19 µM
same,TGI,[33],2.5 µM
same,GI50,[34],2.33 µM
same,TGI,[34],6.48 µM
same,GI50,[35],1.62 µM
same,TGI,[35],8.02 µM
same,GI50,[36],2.83 µM
same,TGI,[36],25.3 µM
same,GI50,[37],2.59 µM
same,TGI,[37],12.1 µM
same,GI50,[38],1.92 µM
same,TGI,[38],5.54 µM
same,GI50,[39],1.46 µM
same,TGI,[39],3.76 µM
same,GI50,[40],0.41 µM
same,TGI,[40],1.92 µM
same,GI50,[41],0.282 µM
same,TGI,[41],1.14 µM
same,GI50,[57],2.51 µM
same,TGI,[57],8.59 µM
same,GI50,[42],0.349 µM
same,TGI,[42],4.29 µM
same,GI50,[43],2.66 µM
same,TGI,[43],7.73 µM
same,GI50,[44],2.89 µM
same,TGI,[44],10.8 µM
same,GI50,[58],2.32 µM
same,TGI,[58],> 28.1 µM
same,GI50,[45],2.6 µM
same,TGI,[45],5.53 µM
same,GI50,[46],0.745 µM
same,TGI,[46],2.94 µM
same,GI50,[47],1.43 µM
same,TGI,[47],3.79 µM
same,GI50,[48],2.2 µM
same,TGI,[48],5.92 µM
same,GI50,[49],1.78 µM
same,TGI,[49],4.13 µM
same,GI50,[50],0.475 µM
same,TGI,[50],1.7 µM
same,GI50,[51],1.3 µM
same,TGI,[51],2.94 µM
same,GI50,[52],1.06 µM
same,TGI,[52],3.58 µM
same,GI50,[53],2.5 µM
same,TGI,[53],7.55 µM
